Source: patent publication US20260374766A1, “METHODS FOR TREATING CANCER” (Antares Therapeutics, Inc., priority 2022, published 2026)

What was measured:
[1] = molecular target: T1, p53 Y220C mutant protein (amino acid residues 94-293) (Homo sapiens, UniProt P04637, Y220C); assay: Surface Plasmon Resonance (SPR) assay, Kd_kinetic; assay type: binding; conditions: SPR; p53 Y220C; read-out: SPR P53 Y220C KD kinetic
T1 construct: p53 Y220C mutant protein (amino acid residues 94-293)
In short: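 Binding measured by SPR on a Biacore 8K in running buffer of 50 mM Tris pH 7.5, 100 mM NaCl, 1 mM DTT, 0.01% Brij35, 0.05% Tween-20, 1% DMSO.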

[2] = molecular target: p53 Y220C (Homo sapiens, UniProt P04637, Y220C); assay: Luciferase Reporter Assay (Luc), p53 response element, NClH1299 cells with inducible p53 Y220C; assay type: cell-based; conditions: luciferase reporter, NClH1299 inducible p53 Y220C, 6 hour; for AC50: read-out: Luc P53 Y220C AC50
In short: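 Steps: seed 5,000 cells/well; induce mutant p53 with 0.5 ug/mL doxycycline for 24 h; treat with compound 6 h; add equal volume One-Glo, shake 5 min at room temperature; measure luciferase immediately.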

[3] = system: NUGC3 p53 Y220C; assay: Cell Proliferation Assay (CellTiter-Glo, CTG), NUGC3 p53 Y220C; assay type: cell-based; conditions: Homo sapiens, NUGC-3, 120 h, NUGC3 cells, 5 days, CellTiter-Glo
In short: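 NClH1299 lines stably transduced with Tet-inducible p53 Y220C or R273H, plus NUGC3, were treated with compound for 5 days at 250-500 cells/well. IC50 derived from CellTiter-Glo luminescent signal after 10 min room-temperature incubation.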

[4] = system: H1299 p53 Y220C; assay: Cell Proliferation Assay (CellTiter-Glo, CTG), H1299 p53 Y220C (NClH1299-inducible p53 Y220C); assay type: cell-based; conditions: Homo sapiens, NCI-H1299, 120 h, NClH1299-inducible p53 Y220C cells, 5 days, CellTiter-Glo
In short: (§1)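 Cells seeded at 250-500 per well and exposed to compound for 5 days. Viability read by CellTiter-Glo luminescence after 10 min at room temperature; IC50 calculated. H1299 lines carry Tet-One inducible p53 mutant constructs introduced by lentiviral transduction.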

[5] = system: H1299 p53 R273H; assay: Cell Proliferation Assay (CellTiter-Glo, CTG), H1299 p53 R273H (NClH1299-inducible p53 R273H); assay type: cell-based; conditions: Homo sapiens, NCI-H1299, 120 h, NClH1299-inducible p53 R273H cells, 5 days, CellTiter-Glo
In short: as §1

T1 sequence (P04637 94-293, stated change not applied): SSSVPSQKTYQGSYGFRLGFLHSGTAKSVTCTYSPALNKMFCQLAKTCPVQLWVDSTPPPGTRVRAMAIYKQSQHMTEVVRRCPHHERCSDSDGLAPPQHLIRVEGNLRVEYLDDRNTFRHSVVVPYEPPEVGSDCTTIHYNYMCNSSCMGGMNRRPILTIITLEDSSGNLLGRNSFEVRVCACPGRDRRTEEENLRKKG

Row | SMILES | Kd [1] [nM] | AC50 [2] [nM] | Emax [2] [%] | IC50 [3] [nM] | IC50 [4] [nM] | IC50 [5] [µM]
1 | CNC(=O)c1cnc(OC)c(NCC#Cc2nc3c(N[C@@H]4CNC[C@@H]4F)cccn3c2SC(F)(F)F)c1 [Example 305] | < 10 | < 750 | 80 to 90 | < 750 | < 750 | ≥ 10
2 | CNC(=O)c1ccc(NCC#Cc2nc3c(N[C@@H]4CCN(C)C[C@@H]4F)cccn3c2SC(F)(F)F)c(Cl)c1 [Example 310] | < 10 | < 750 | > 90 | < 750 | < 750 | ≥ 10
3 | CNC(=O)c1ccc(NCC#Cc2nc3c(N[C@@H]4CCN(C)C[C@@H]4F)cccn3c2SC(F)(F)F)c(F)c1 [Example 311] | < 10 | < 750 | > 90 | < 750 | < 750 | 5 to 8
4 | CNC(=O)c1cnc(OC)c(NCC#Cc2cc3c(N[C@@H]4CNC[C@@H]4F)nccn3c2SC(F)(F)F)c1 [Example 313] | < 10 | 750 to 1500 | 80 to 90 | 750 to 1500 | 750 to 1500 | ≥ 10
5 | CN1CC[C@@H](Nc2cccn3c(SC(F)(F)F)c(C#CCNc4ccc(C(N)=O)cc4)nc23)[C@@H](F)C1 [Example 314] | < 10 | < 750 | > 90 | < 750 | < 750 | ≥ 10
6 | CN1CC[C@@H](Nc2cccn3c(SC(F)(F)F)c(C#CCNc4ccc(P(C)(C)=O)cc4)nc23)[C@@H](F)C1 [Example 315] | < 10 | 750 to 1500 | 80 to 90 | < 750 | < 750 | ≥ 10
7 | CCNC(=O)c1ccc(NCC#Cc2nn3c(N[C@@H]4CCN(C)C[C@@H]4F)cccc3c2SC(F)(F)F)c(OC)c1 [Example 316] | < 10 | < 750 | > 90 | < 750 | < 750 | ≥ 10
8 | CNC(=O)c1ccc(OC)c(NCC#Cc2nc3c(N[C@@H]4CCN(C)C[C@@H]4F)cccn3c2SC(F)(F)F)c1F [Example 320] | 10 to 100 | > 3000 | 70 to 80 | > 3000 | > 3000 | ≥ 10
9 | CNC(=O)c1ccc(NCC#Cc2nc3c(N[C@@H]4CN(C)C[C@@H]4F)nccn3c2SC(F)(F)F)c(OC)c1 [Example 323] | < 10 | 750 to 1500 | > 90 | 750 to 1500 | 750 to 1500 | ≥ 10
10 | CNC(=O)c1ccc(NCC#Cc2cc3c(N[C@@H]4CN(C)C[C@@H]4F)nccn3c2SC(F)(F)F)c(OC)c1 [Example 325] | < 10 | < 750 | > 90 | < 750 | < 750 | ≥ 10
11 | CNC(=O)c1ccc(OC)c(NCC#Cc2cc3c(N[C@@H]4CCNC[C@@H]4F)nccn3c2SC(F)F)c1 [Example 326] | < 10 | < 750 | > 90 | < 750 | < 750 | ≥ 10
12 | CNC(=O)c1cnc(OC)c(NCC#Cc2cc3c(N[C@@H]4CN(C)C[C@@H]4F)nccn3c2SC(F)F)c1 [Example 328] | < 10 | < 750 | > 90 | < 750 | < 750 | ≥ 10
13 | CNC(=O)c1cnc(OC)c(NCC#Cc2cc3c(N[C@@H]4CN(C)C[C@@H]4F)nccn3c2SC(F)(F)F)c1 [Example 330] | < 10 | < 750 | > 90 | < 750 | < 750 | ≥ 10
14 | CNC(=O)c1ccc(OC)c(NCC#Cc2cc3c(N[C@@H]4CN(C)C[C@@H]4F)nccn3c2SC(F)F)c1 [Example 331] | < 10 | < 750 | > 90 | < 750 | < 750 | ≥ 10
15 | CNC(=O)c1ccc(OC)c(NCC#Cc2cc3c(N[C@@H]4CN(C)C[C@@H]4F)nccn3c2SC(F)F)n1 [Example 332] | < 10 | 1500 to 3000 | 80 to 90 | > 3000 | 1500 to 3000 | ≥ 10
16 | CNC(=O)c1ccc(OC)c(NCC#Cc2cc3c(N[C@@H]4CCN(C)C[C@@H]4F)nccn3c2SC(F)F)n1 [Example 333] | < 10 | < 750 | > 90 | < 750 | < 750 | ≥ 10
17 | CNS(=O)(=O)c1ccc(OC)c(NCC#Cc2cc3c(N[C@@H]4CCN(C)C[C@@H]4F)nccn3c2SC(F)F)c1 [Example 334] | 10 to 100 | > 3000 | 80 to 90 | > 3000 | 1500 to 3000 | ≥ 10
18 | CNS(=O)(=O)c1ccc(OC)c(NCC#Cc2cc3c(N[C@@H]4CCN(C)C[C@@H]4F)nccn3c2SC(F)(F)F)c1 [Example 335] | < 10 | 1500 to 3000 | 80 to 90 | 1500 to 3000 | 1500 to 3000 | ≥ 10
19 | CNC(=O)c1cc(F)c(OC)c(NCC#Cc2cc3c(N[C@@H]4CCN(C)C[C@@H]4F)nccn3c2SC(F)(F)F)c1 [Example 337] | < 10 | < 750 | > 90 | < 750 | < 750 | < 5
20 | COc1cc(S(C)(=O)=O)ccc1NCC#Cc1nn2c(N[C@@H]3CCN(C)C[C@@H]3F)cccc2c1SC(F)(F)F [Example 363] | < 10 | < 750 | 80 to 90 | < 750 | < 750 | ≥ 10
21 | O=C(NCC1COC1)c1ccc(NCC#Cc2cc3c(N[C@@H]4CCNC[C@@H]4F)cccn3c2SC(F)(F)F)cc1 [Example 364] | < 10 | < 750 | 70 to 80 | < 750 | < 750 | < 5
22 | O=C(NC[C@H]1CCO1)c1ccc(NCC#Cc2cc3c(N[C@@H]4CCNC[C@@H]4F)cccn3c2SC(F)(F)F)cc1 [Example 365] | < 10 | < 750 | 80 to 90 | < 750 | < 750 | < 5
23 | O=C(NCC1(O)CC1)c1ccc(NCC#Cc2cc3c(N[C@@H]4CCNC[C@@H]4F)cccn3c2SC(F)(F)F)cc1 [Example 367] | < 10 | < 750 | > 90 | < 750 | < 750 | 8 to 10
24 | O=C(NC[C@@H]1CCO1)c1ccc(NCC#Cc2cc3c(N[C@@H]4CCNC[C@@H]4F)cccn3c2SC(F)(F)F)cc1 [Example 368] | < 10 | < 750 | 80 to 90 | < 750 | < 750 | 5 to 8
